Results taken from EP0422618A1, “Polysaccharides with antiphlogistic activity, method for obtaining them and pharmaceutical compositions containing the same” (LOMAPHARM Rudolf Lohmann GmbH KG Pharmazeutische Fabrik, priority 1989, dated 1991).

System: Carrageenan induzierten Rattenpfotenödem
Experiment: Carrageenan-induced rat paw oedema test
Format: in vivo, Ratte
Details: 10 mg/kg i.v.
Text: Die antiphlogistische Wirkung der erfindungsgemäßen Polysaccharide wurde im Carrageenan induzierten Rattenpfotenödemtest untersucht (Winter, C.A. et al., Proc. Soc. Exp. Biol. Med. 111, 544 (1962)).

## COc1ccc2c(c1)c(CC(=O)O)c(C)n2C(=O)c1ccc(Cl)cc1 [Indometacin]
  Hemmung des Rattenpfotenödems nach 8 Stunden: Indometacin 10 mg/kg i.v. 22,9%
